{"source": "patent US20140248655A1", "about": "“QUANTITATIVE SOFT AGAR COLONY FORMATION ASSAY USING TETRAZOLIUM THAT GENERATES WATER-SOLUBLE FORMAZAN” (KAGOSHIMA UNIVERSITY, priority 2011, published 2014)", "system": "DU145 cells", "test": "Method of the invention: soft agar colony formation assay with WST-1, DU145", "format": "cell-based, human", "text": "The […] compounds used may be able to function as ideal antitumor agents that have PCA-1 inhibitory effects, fewer (and less severe) side effects (cytotoxicity), and high tumor-shrinking effects.", "data": [{"smiles": "CC(=O)O[C@H]1C(=O)[C@@]2(C)[C@H]([C@H](OC(=O)c3ccccc3)[C@]3(O)C[C@H](OC(=O)[C@H](O)[C@@H](NC(=O)c4ccccc4)c4ccccc4)C(C)=C1C3(C)C)[C@]1(OC(C)=O)CO[C@@H]1C[C@@H]2O", "note": "[Paclitaxel]", "values": [{"measurement": "cell viability (%)", "setting": "DU145 10,000 cells/well, culture 1 week, concentrations of FIG. 2", "value": "lowered by Paclitaxel as an anticancer agent in a concentration-dependent manner"}, {"measurement": "OD value (OD405) versus number of seeded cells", "setting": "medium containing 100 μmol of Paclitaxel, culture 7 days, FIG. 1", "value": "the OD value was low, and it was not correlated with the number of cells"}]}]}
